How the values were obtained:
[1] = tested on: HMC3 cells; experiment: Microglial phagocytosis/cell health high-content assay, HMC3 cells; assay type: cell-based; settings: 60 μM, 48 hrs, compared to control
Procedure: The assay introduced here is a simplified cellular imaging assay without any fixation and washing steps, while producing multiparameter measurements with high capacity using a 384-well plate format. The assay procedures include plating cells on day 1, incubating cell plates overnight before treating cells on day 2, adding pHrodo™-myelin/membrane debris to cell plates on day 3, and 20 hr later, staining cell nuclei with Hoechst-33342 for 30 min before performing high-content imaging on day 4. Three selected parameters are measured from cells: 1) mean total fluorescence intensity per cell of pHrodo™-myelin/membrane debris in phagocytosis vesicles to quantify phagocytosis; 2) cell counts per well to quantify treatment effects on proliferation and cell death; and 3) average nuclear intensity to quantify treatment-induced nuclear changes such as in apoptosis. The assay has been used on HMC3 cells (an immortalized human microglial cell line), BV2 cells (an immortalized mouse microglial cell line), and primary microglia isolated from mouse brains. For initial assay attempts, we recommend using HMC3 cells available from the ATCC.
All collected raw data are normalized to the untreated control with following formula: % of control=100×(X−Min)/(Max−Min). Factors in the formula are: X is raw data from a treated well, Max is an average measurement from pHrodo™-myelin seeded but untreated wells, and Min is an average measurement from no pHrodo™-myelin untreated wells. Normalized data are used for curve fitting that is done with the variable slope (four parameters) using the Prism software.
To ensure that the measurements reflect the steady state of compound treatment effects and cell health, the assay was set with a total compound treatment time of 48 hr, including pHrodo™-myelin/membrane debris seeding performed 20-24 hr after compound addition. […] Among many available quantitative measurements from the image analysis, we selected three parameters for the assay:
1) The mean total intensity of phagocytosis vesicles/cell—to measure phagocytosis. There are multiple parameters generated from the image analysis, including phagocytosis vesicle area, number, and various fluorescence intensity measurements. Comparing these parameters, the total fluorescence intensity of vesicles/cell is the most sensitive one and was chosen for quantifying phagocytosis.
2) The total cell counts—to measure overall cell viability, which is affected by proliferation and cell death. We chose to take 4 images/well (with the 10× objective lens) that cover about 50% of the total area of a well in a 384-well plate to represent cell count of the well.
3) The average nuclear intensity—to measure drug-induced apoptosis, with high signal indicating nuclear condescension (a sign of early apoptosis) and low signal indicating DNA degradation (a sign of later apoptosis, when activated caspases digest DNA).
A phenotypic high-content imaging assay with simultaneous measurements of phagocytosis, cell number, and nuclear intensity was used to assess both cellular pharmacology and cell health. Model cell lines BV2 (immortalized mouse microglia, a gift from Dr. Michelle Block's laboratory at IUSM) and HMC3 (immortalized human microglia, obtained from ATCC, CRL-3304) were used to provide adequate throughput. Cells were cultured in DMEM GlutaMax media (ThermoFisher) containing 10% FBS and Pen-Strep in a 37° C. 5% CO2 incubator, plated in Corning Falcon 384 well Optilux Black and clear bottom plates: 400 cells/45 μl/well (BV2 cells), 600 cells/45 μl/well (HMC3 cells) and 2000 cell/45 μl/well (primary cells), and treated with 10× serially diluted compounds (60 μM-3 nM) for 48 hrs at 37° C. […]

[2] = molecular target: T1, PLCγ2 enzyme (Homo sapiens, UniProt P16885); experiment: Liposomal biochemical assay with fluorogenic probe XY-69; settings: for increase in PLCγ2 activity (change in slope relative to control): dose response, liposomes with XY-69
T1 sequence (P16885 1-1265): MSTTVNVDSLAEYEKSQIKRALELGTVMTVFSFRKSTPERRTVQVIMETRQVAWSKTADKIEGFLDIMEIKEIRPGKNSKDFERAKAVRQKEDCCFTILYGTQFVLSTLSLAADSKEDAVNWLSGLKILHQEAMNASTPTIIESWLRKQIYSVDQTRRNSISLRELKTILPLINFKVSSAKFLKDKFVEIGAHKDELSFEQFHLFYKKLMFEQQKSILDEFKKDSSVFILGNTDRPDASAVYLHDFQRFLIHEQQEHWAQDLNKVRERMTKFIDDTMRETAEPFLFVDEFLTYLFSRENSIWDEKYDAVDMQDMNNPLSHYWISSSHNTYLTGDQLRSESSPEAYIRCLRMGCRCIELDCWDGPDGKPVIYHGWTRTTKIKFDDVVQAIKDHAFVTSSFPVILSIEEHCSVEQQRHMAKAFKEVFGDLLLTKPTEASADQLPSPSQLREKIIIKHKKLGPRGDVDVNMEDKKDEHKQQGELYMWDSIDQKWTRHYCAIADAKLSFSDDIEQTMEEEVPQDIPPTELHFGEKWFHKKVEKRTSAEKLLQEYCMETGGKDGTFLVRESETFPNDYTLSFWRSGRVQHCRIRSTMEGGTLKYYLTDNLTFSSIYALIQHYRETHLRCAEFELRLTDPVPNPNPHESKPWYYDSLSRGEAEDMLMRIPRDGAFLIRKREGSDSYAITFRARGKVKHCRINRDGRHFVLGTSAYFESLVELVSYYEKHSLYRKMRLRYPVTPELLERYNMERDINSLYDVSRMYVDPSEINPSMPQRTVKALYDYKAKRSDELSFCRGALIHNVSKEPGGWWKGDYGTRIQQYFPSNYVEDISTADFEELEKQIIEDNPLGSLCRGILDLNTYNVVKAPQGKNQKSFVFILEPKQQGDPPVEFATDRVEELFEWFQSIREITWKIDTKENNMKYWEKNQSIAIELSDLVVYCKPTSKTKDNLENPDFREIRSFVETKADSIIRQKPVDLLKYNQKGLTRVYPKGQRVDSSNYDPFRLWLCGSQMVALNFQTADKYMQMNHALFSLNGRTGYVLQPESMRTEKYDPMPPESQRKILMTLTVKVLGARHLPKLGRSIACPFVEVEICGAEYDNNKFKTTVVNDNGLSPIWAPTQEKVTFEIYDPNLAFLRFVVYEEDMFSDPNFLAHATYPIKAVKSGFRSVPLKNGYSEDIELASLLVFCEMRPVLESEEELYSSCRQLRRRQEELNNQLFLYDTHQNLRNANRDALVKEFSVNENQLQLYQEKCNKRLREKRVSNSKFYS
Excerpt: Sondek and coworkers have described an assay for PLCγ1 activity in the presence of liposomes as a model for activity at the cell membrane where the natural ligand is located.^36 The assay was redeveloped and reoptimized for PLCγ2 at the Purdue Institute for Drug Discovery. Liposomes containing XY-69 (purchased from Avanti Polar Lipids, cat. #850168) were generated using phosphatidylinositol 4,5-bisphosphate (PIP2) and 1-stearoyl-2-arachidonoyl-sn-glycero-3-phosphatidylethanolamine (lipidPE). The PLCγ2 enzyme was exposed to this solution and, after treatment with the compounds of interest, the fluorescence intensity (ex: 485 nm; em: 520 nm) was recorded every 2 min for 120 min (FIG. 19). The slope of the linear portion of the curves (up to 50 min) was compared to control giving a relative rate of reaction. Dose dependent curves of a representative sample of the compounds tested are shown (FIG. 20A-20B).

Row | SMILES | Ave. % Cell Count @ 60 uM HMC3 cells [1] [%] | Ave. % Phagocytosis @ 60 uM HMC3 cells [1] [%] | increase in PLCγ2 activity (change in slope relative to control) [2] | increase in PLCγ2 activity (change in slope relative to control) ([2]; listed as m-3M3FBS) | enzymatic activation, single dose ([2]; 100 μM)
1 | Cc1cc(C)c(S(=O)(=O)Nc2cccc(C(F)(F)F)c2)c(C)c1 [Compound 1, 2,4,6-trimethyl-N-(meta-3-trifluoromethyl-phenyl)-benzenesulfonamide, reference compound] | 3 | 0 | among the highest increases of all analogs tested | highest increase in response | 
2 | Cc1cc(C)c(S(=O)(=O)Nc2ccccc2C(F)(F)F)c(C)c1 [Compound 2, o-3M3FBS, reference compound] | 103 | 99 | much lower, though it still showed a statistically significant increase in activation |  | 
3 | O=S(=O)(Nc1ccc(Br)cc1F)c1cccs1 [Compound 8] | 88 | 104 |  |  | 
4 | Cc1cc(C)c(S(=O)(=O)NC2CCCNC2)c(C)c1 (stereo not drawn) [Compound 11] | 65 | 146 |  |  | no enzymatic activation

— patent publication US20250020635A1, “ASSAY METHODS AND USES THEREOF FOR SCREENING ALZHEIMER'S DISEASE TREATMENT COMPOUNDS” (priority 2023, published 2025)
